According to BindingDB's records for doi:10.1124/mol.63.6.1223 (Case Western Reserve University, 2003):
“And” between values parts separate entries of the source, which are not always exact repeats. Equal values may be shown once.

How the values were obtained:
[1] = target: Sodium-dependent serotonin transporter (Rattus norvegicus, UniProt P31652)
[2] = target: Sodium-dependent dopamine transporter (Rattus norvegicus, UniProt P23977)
[3] = target: 5-hydroxytryptamine receptor 2B (Homo sapiens, UniProt P41595)
Chain of 5-hydroxytryptamine receptor 2B (P41595 whole entry): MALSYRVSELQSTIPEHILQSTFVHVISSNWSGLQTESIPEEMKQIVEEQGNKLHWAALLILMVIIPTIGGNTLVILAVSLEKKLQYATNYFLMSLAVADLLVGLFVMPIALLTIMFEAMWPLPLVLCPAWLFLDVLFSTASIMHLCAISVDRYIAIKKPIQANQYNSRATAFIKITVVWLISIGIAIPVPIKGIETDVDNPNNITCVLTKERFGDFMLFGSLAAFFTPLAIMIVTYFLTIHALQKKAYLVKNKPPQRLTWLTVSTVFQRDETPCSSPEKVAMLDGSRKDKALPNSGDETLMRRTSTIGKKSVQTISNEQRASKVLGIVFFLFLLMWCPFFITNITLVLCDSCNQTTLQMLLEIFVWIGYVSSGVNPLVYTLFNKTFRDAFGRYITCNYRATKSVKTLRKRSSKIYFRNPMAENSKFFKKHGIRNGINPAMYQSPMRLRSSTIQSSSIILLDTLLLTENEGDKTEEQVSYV

[4] = target: Norepinephrine transporter (Rattus norvegicus, UniProt Q9JIA2)
[5] = target: 5-hydroxytryptamine receptor 1D (Homo sapiens, UniProt P28221)
Chain of 5-hydroxytryptamine receptor 1D (P28221 whole entry): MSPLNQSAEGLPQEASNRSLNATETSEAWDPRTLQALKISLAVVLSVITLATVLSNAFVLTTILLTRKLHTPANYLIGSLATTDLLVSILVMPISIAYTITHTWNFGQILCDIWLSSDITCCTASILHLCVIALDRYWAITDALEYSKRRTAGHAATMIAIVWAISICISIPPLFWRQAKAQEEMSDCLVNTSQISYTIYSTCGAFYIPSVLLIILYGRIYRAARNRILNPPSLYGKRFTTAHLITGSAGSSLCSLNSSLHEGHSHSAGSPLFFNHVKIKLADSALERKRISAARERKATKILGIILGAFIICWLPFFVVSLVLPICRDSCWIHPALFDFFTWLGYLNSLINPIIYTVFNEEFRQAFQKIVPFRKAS

[6] = target: Acetylcholine receptor subunit alpha (Homo sapiens, UniProt P02708)
D(1A) dopamine receptor = D(1A) dopamine receptor (Homo sapiens, UniProt P21728)
[7] = target: Muscarinic acetylcholine receptor M2 (Homo sapiens, UniProt P08172)
Chain of Muscarinic acetylcholine receptor M2 (P08172 whole entry): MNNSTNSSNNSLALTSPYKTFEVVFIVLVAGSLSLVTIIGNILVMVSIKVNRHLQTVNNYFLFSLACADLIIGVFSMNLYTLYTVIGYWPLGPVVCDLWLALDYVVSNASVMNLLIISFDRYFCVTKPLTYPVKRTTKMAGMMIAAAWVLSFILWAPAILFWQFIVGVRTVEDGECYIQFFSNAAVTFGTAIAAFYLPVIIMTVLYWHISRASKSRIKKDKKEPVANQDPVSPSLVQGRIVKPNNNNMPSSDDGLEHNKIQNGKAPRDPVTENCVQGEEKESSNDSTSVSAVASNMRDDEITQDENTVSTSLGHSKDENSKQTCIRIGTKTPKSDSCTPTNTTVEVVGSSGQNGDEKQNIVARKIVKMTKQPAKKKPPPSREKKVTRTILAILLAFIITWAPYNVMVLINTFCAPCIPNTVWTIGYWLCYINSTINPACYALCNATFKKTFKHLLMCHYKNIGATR

[8] = target: Prostaglandin E2 receptor EP4 subtype (Homo sapiens, UniProt P35408)
[9] = target: Neuronal acetylcholine receptor subunit alpha-3 (Homo sapiens, UniProt P32297)
[10] = target: Prostaglandin E2 receptor EP3 subtype (Homo sapiens, UniProt P43115)
[11] = target: Metabotropic glutamate receptor 8 (Rattus norvegicus, UniProt P70579)
Chain of Metabotropic glutamate receptor 8 (P70579 whole entry): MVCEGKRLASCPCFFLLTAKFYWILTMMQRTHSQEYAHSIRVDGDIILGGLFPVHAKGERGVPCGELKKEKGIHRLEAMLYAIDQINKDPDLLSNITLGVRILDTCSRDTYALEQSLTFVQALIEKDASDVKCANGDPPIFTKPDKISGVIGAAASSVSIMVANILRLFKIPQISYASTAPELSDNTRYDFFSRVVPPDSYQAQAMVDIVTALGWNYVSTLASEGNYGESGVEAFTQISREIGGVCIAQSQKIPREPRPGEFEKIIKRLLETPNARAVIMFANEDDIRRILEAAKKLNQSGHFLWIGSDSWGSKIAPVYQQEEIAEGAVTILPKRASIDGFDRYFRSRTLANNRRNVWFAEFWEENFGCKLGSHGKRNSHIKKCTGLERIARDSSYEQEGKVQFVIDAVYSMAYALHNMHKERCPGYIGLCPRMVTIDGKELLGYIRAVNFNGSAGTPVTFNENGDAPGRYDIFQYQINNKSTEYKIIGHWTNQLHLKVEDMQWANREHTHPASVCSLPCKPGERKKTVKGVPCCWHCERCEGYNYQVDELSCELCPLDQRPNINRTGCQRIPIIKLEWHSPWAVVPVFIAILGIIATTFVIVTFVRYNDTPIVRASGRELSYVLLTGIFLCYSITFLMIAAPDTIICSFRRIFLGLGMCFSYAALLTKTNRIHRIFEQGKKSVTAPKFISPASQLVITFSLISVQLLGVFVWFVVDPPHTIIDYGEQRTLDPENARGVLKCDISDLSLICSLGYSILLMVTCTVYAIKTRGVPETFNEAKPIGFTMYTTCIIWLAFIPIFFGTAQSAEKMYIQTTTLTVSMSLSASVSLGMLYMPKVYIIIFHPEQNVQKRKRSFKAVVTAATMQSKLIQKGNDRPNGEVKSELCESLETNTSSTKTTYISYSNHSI

[12] = target: Metabotropic glutamate receptor 4 (Rattus norvegicus, UniProt P31423)
[13] = target: Metabotropic glutamate receptor 2 (Homo sapiens, UniProt Q14416)
[14] = target: Gamma-aminobutyric acid (GABA) B receptor 1 (Rattus norvegicus, UniProt Q6MFX8)
Cannabinoid receptor 1 = Cannabinoid receptor 1 (Rattus norvegicus, UniProt P20272)
D(4) dopamine receptor = D(4) dopamine receptor (Rattus norvegicus, UniProt P30729)
Chain of D(4) dopamine receptor (P30729 whole entry): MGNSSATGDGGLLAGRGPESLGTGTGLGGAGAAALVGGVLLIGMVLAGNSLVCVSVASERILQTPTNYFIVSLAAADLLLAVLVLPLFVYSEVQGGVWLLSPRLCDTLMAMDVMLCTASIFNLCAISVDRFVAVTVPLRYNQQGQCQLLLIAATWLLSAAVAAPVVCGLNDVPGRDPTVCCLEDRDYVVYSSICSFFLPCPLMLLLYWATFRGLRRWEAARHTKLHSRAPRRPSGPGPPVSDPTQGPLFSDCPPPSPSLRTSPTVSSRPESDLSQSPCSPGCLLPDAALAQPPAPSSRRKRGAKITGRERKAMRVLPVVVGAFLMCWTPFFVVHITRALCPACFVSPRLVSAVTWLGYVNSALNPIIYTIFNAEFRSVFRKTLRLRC

D(2) dopamine receptor = D(2) dopamine receptor (Homo sapiens, UniProt P14416)
Chain of D(2) dopamine receptor (P14416 whole entry): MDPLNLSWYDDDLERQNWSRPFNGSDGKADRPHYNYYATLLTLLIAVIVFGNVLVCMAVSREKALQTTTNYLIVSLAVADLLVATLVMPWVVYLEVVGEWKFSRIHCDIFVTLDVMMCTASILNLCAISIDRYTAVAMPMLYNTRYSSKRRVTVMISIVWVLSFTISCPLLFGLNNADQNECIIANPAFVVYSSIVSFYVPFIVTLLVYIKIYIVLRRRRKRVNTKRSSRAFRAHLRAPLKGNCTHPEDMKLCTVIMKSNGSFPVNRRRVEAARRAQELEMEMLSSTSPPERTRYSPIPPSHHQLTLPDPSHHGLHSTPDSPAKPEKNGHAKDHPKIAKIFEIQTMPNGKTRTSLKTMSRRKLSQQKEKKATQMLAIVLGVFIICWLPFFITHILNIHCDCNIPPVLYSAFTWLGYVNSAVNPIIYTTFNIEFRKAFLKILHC

[15] = target: Alpha-1A adrenergic receptor (Homo sapiens, UniProt P35348)
[16] = target: 5-hydroxytryptamine receptor 1A (Homo sapiens, UniProt P08908)
[17] = target: Metabotropic glutamate receptor 1 (Rattus norvegicus, UniProt P23385)
[18] = target: Muscarinic acetylcholine receptor M1 (Homo sapiens, UniProt P11229)
[19] = target: 5-hydroxytryptamine receptor 5A (Homo sapiens, UniProt P47898)
[20] = target: Glutamate receptor ionotropic, NMDA 1 (Rattus norvegicus, UniProt P35439)
D(3) dopamine receptor = D(3) dopamine receptor (Homo sapiens, UniProt P35462)
[21] = target: 5-hydroxytryptamine receptor 1B (Homo sapiens, UniProt P28222)
[22] = target: Muscarinic acetylcholine receptor M5 (Homo sapiens, UniProt P08912)
[23] = target: Gamma-aminobutyric acid receptor subunit alpha-1 (Rattus norvegicus, UniProt P62813)
Chain of Gamma-aminobutyric acid receptor subunit alpha-1 (P62813 whole entry): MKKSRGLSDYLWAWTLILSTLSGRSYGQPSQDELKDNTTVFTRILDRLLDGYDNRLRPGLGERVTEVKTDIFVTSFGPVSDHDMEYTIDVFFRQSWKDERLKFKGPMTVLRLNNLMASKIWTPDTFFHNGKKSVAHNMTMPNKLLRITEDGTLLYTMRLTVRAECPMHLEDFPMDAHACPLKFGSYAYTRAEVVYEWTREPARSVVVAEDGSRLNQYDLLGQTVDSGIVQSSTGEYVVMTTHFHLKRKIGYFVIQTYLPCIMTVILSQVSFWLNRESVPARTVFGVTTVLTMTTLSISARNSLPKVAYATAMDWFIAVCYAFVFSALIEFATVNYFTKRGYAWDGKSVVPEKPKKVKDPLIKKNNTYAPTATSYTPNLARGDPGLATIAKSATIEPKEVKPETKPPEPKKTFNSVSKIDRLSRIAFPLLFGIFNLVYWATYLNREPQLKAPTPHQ

[24] = target: Alpha-2C adrenergic receptor (Homo sapiens, UniProt P18825)
D(1B) dopamine receptor = D(1B) dopamine receptor (Homo sapiens, UniProt P21918)
[25] = target: Muscarinic acetylcholine receptor M4 (Homo sapiens, UniProt P08173)
[26] = target: Voltage-dependent L-type calcium channel subunit alpha-1C (Rattus norvegicus, UniProt P22002)
Histamine H1 receptor = Histamine H1 receptor (Homo sapiens, UniProt P35367)
[27] = target: Alpha-2A adrenergic receptor (Homo sapiens, UniProt P08913)
[28] = target: Sodium-dependent dopamine transporter (Homo sapiens, UniProt Q01959)
[29] = target: 5-hydroxytryptamine receptor 7 (Homo sapiens, UniProt P34969)
[30] = target: Beta-2 adrenergic receptor (Rattus norvegicus, UniProt P10608)
[31] = target: Sodium-dependent noradrenaline transporter (Homo sapiens, UniProt P23975)
[32] = target: 5-hydroxytryptamine receptor 2C (Rattus norvegicus, UniProt P08909)
[33] = target: Beta-1 adrenergic receptor (Rattus norvegicus, UniProt P18090)
[34] = target: 5-hydroxytryptamine receptor 6 (Homo sapiens, UniProt P50406)

Chain of Sodium-dependent dopamine transporter (Rattus norvegicus, UniProt P23977) (P23977 whole entry): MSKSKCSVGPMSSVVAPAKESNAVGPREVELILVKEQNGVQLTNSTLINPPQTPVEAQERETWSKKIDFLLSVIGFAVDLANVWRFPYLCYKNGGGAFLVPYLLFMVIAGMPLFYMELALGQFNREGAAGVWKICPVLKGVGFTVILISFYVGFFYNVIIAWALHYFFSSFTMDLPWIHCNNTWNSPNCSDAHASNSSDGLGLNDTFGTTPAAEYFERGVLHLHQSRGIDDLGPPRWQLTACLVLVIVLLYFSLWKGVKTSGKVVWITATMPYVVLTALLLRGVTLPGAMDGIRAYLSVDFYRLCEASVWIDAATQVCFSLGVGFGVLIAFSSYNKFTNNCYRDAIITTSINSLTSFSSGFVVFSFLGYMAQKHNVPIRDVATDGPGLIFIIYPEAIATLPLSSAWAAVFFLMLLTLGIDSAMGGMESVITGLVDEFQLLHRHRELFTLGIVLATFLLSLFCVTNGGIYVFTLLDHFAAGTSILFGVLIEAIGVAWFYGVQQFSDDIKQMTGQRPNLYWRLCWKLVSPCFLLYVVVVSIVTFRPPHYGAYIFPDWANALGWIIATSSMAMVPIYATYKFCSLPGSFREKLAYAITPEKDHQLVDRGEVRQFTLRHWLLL
Chain of Sodium-dependent serotonin transporter (P31652 whole entry): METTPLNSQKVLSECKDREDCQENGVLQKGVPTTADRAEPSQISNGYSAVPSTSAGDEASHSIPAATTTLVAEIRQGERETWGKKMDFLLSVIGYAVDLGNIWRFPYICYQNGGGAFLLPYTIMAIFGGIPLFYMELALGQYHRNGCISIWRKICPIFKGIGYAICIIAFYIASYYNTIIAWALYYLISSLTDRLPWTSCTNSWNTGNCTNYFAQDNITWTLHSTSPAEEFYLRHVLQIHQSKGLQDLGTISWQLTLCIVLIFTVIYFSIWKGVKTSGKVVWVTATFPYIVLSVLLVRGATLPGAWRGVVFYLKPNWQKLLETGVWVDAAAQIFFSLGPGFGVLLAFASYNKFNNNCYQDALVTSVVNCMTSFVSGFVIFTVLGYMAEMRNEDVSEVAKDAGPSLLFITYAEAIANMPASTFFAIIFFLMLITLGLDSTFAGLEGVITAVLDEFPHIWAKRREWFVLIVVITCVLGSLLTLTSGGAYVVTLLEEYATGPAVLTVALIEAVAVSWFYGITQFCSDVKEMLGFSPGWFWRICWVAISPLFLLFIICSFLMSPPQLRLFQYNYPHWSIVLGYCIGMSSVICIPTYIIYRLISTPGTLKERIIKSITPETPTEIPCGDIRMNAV

Q: Which Ki [1] does the source give for CN[C@H](C)Cc1ccc2c(c1)OCO2 [NSC_126235] here?
A: 74 nM

Q: What about the Ki [2] of the same compound?
A: 142 nM

Q: And the Ki [3]?
A: 6000 nM

Q: And the Ki [4]?
A: 136 nM

Q: What does the source list for CN[C@@H](C)Cc1ccc2c(c1)OCO2 [DL-(3,4-Methylenedioxy)methamphetamine]?
A: Ki [5]: > 10000 nM; Ki [1]: 72 nM; Ki [6]: > 10000 nM; Ki (D(1A) dopamine receptor): > 10000 nM; Ki [7]: > 10000 nM; Ki [8]: > 10000 nM; Ki [9]: > 10000 nM; Ki [10]: > 10000 nM; Ki [11]: > 10000 nM; Ki [12]: > 10000 nM; Ki [13]: > 10000 nM; Ki [14]: > 10000 nM; Ki (Cannabinoid receptor 1): > 10000 nM; Ki (D(4) dopamine receptor): > 10000 nM; Ki (D(2) dopamine receptor): > 10000 nM; Ki [15]: > 10000 nM; Ki [16]: > 10000 nM; Ki [17]: > 10000 nM; Ki [18]: > 10000 nM; Ki [19]: > 10000 nM; Ki [20]: > 10000 nM; Ki (D(3) dopamine receptor): > 10000 nM; Ki [21]: > 10000 nM; Ki [22]: 6340 nM; Ki [23]: > 10000 nM; Ki [24]: 1120 nM; Ki (D(1B) dopamine receptor): > 10000 nM; Ki [25]: 8240 nM; Ki [26]: 1200 nM; Ki [2]: 278 nM; Ki (Histamine H1 receptor): 2140 nM; Ki [27]: 2530 nM; Ki [28]: > 10000 nM; Ki [29]: > 10000 nM; Ki [30]: > 10000 nM; Ki [31]: > 10000 nM; Ki [3]: 500 nM and 2000 nM; Ki [4]: 110 nM; Ki [32]: > 10000 nM; Ki [33]: > 10000 nM; Ki [34]: > 10000 nM

Q: CN1CC(C(=O)NC2(C)OC3(O)C4CCCN4C(=O)C(Cc4ccccc4)N3C2=O)CC2c3cccc4[nH]cc(c34)CC21 (stereo unspecified) [NSC_3066] was tested. Which Ki [3] did it give?
A: 15.2 nM and 30 nM

Q: Which results are given for CC(N)Cc1cccc(C(F)(F)F)c1 (stereo unspecified) [NSC_15897]?
A: Ki [1]: 104 nM; Ki [2]: 1900 nM; Ki [3]: 15 nM and 60 nM; Ki [4]: 170 nM

Q: For CCNC(C)Cc1cccc(C(F)(F)F)c1 (stereo unspecified) [NSC_3337], which Ki [2] is on record?
A: > 10000 nM

Q: For CCCN1CC(CSC)CC2c3cccc4[nH]cc(c34)CC21 (stereo unspecified) [CAS_66104-22-1], which Ki [3] is on record?
A: 14 nM and 53 nM

Q: With CCC(CO)NC(=O)C1C=C2c3cccc4[nH]cc(c34)CC2N(C)C1 (stereo unspecified) [NSC_8226] as the compound, how does the Ki [3] read?
A: 0.8 nM

Q: Which Ki [1] does the source give for C[C@@H](N)Cc1ccc2c(c1)OCO2 [NSC_3046161] here?
A: 310 nM

Q: What about the Ki [2] of the same compound?
A: 900 nM

Q: What about the Ki [3] of the same compound?
A: 150 nM

Q: What about the Ki [4] of the same compound?
A: 290 nM

Q: CC(N)Cc1ccc2c(c1)OCO2 (stereo unspecified) was tested. Which Ki [1] did it give?
A: 160 nM

Q: What about the Ki [2] of the same compound?
A: 190 nM

Q: What about the Ki [3] of the same compound?
A: 100 nM and 190 nM

Q: What about the Ki [4] of the same compound?
A: 108 nM

Q: With C[C@H](N)Cc1ccc2c(c1)OCO2 [NSC_3050061] as the compound, how does the Ki [1] read?
A: 100 nM

Q: What about the Ki [2] of the same compound?
A: 98 nM

Q: What about the Ki [3] of the same compound?
A: 100 nM

Q: What about the Ki [4] of the same compound?
A: 50 nM

Q: How did the Ki [2] turn out when NCCc1c[nH]c2ccc(O)cc12 [[3H]-5-HT] was run?
A: > 10000 nM

Q: What about the Ki [4] of the same compound?
A: > 10000 nM

Q: What does the source list for CN[C@@H](C)Cc1ccc2c(c1)OCO2 [MDMA, R(-)]?
A: Ki [1]: 340 nM; Ki [2]: 3700 nM; Ki [3]: 900 nM; Ki [4]: 560 nM
